Several values for one entry are separate records, joined by “and”; a condition that tells them apart may be missing. Equal entries are not always repeated. Toxic doses and inconclusive results are not listed.
Test system: P388 leukemia ip, CD2F1 mice, survival T/C
Assay: NCI In Vivo Anticancer Drug Screen. Data for tumor model P388 Leukemia (intraperitoneal) in CD2F1 (CDF1) mice
Details: endpoint: median survival time, higher = longer survival
Summary of the method: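 Mice carrying the transplanted tumor received test compound or vehicle. Survival was recorded in each group, and the value is the treated-group measurement divided by that of the vehicle-treated control group.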

[1] = dose: 50.0 mg/kg/injection, schedule: Q01DX009 (ip), vehicle: other
[2] = dose: 100.0 mg/kg/injection, schedule: Q01DX009 (ip), vehicle: other
[3] = dose: 200.0 mg/kg/injection, schedule: Q01DX009 (ip), vehicle: other

## CC1CC2OC2/C=C\C=C\C(=O)Cc2c(Cl)c(O)cc(O)c2C(=O)O1 (centres undefined)
dose: 6.25 mg/kg/injection, schedule: Q01DX009 (ip), vehicle: Klucel (hydroxypropylcellulose) (HPC)
  T/C: 107 % of control
dose: 12.5 mg/kg/injection, schedule: Q01DX009 (ip), vehicle: Klucel (hydroxypropylcellulose) (HPC)
  T/C: 108 % of control
dose: 25.0 mg/kg/injection, schedule: Q01DX009 (ip), vehicle: Klucel (hydroxypropylcellulose) (HPC)
  T/C: 110 % of control
dose: 50.0 mg/kg/injection, schedule: Q01DX009 (ip), vehicle: Klucel (hydroxypropylcellulose) (HPC)
  T/C: 109 % of control

## CC1(C)C(N2CCOCC2)C(c2ccccc2)S1(=O)=O (centres undefined)
dose: 50.0 mg/kg/injection, schedule: Q01DX001 (ip), vehicle: saline with Tween-80
  T/C: 91 % of control
dose: 100.0 mg/kg/injection, schedule: Q01DX001 (ip), vehicle: saline with Tween-80
  T/C: 100 % of control
dose: 200.0 mg/kg/injection, schedule: Q01DX001 (ip), vehicle: saline with Tween-80
  T/C: 95 % of control

## O=C(O)C1SCSC1C(=O)O (centres undefined)
dose: 25.0 mg/kg/injection, schedule: Q01DX009 (ip), vehicle: other
  T/C: 94 % of control
[1]
  T/C: 100 % of control
[2]
  T/C: 90 % of control
[3]
  T/C: 98 % of control

## CC(c1ccccc1)[c-]1[c-][c-][c-][c-]1.[Cl][Zr][Cl].[c-]1[c-][c-][cH-][c-]1 (centres undefined)
dose: 3.12 mg/kg/injection, schedule: Q01DX009 (ip), vehicle: saline with Tween-80
  T/C: 93 % of control
dose: 6.25 mg/kg/injection, schedule: Q01DX009 (ip), vehicle: saline with Tween-80
  T/C: 104 % of control
dose: 12.5 mg/kg/injection, schedule: Q01DX009 (ip), vehicle: saline with Tween-80
  T/C: 104 % of control
dose: 50.0 mg/kg/injection, schedule: Q01DX009 (ip), vehicle: saline with Tween-80
  T/C: 95 % of control

## CC(C)NC(=O)c1ccc(C/[N+]([O-])=C/c2ccccc2)cc1
dose: 50.0 mg/kg/injection, schedule: Q01DX009 (ip), vehicle: distilled water + Tween-80
  T/C: 95 % of control
[1]
  T/C: 121 % of control
dose: 100.0 mg/kg/injection, schedule: Q01DX009 (ip), vehicle: distilled water + Tween-80
  T/C: 92 % of control and 95 % of control
[2]
  T/C: 103 % of control
dose: 200.0 mg/kg/injection, schedule: Q01DX009 (ip), vehicle: distilled water + Tween-80
  T/C: 89 % of control and 92 % of control
[3]
  T/C: 116 % of control
dose: 400.0 mg/kg/injection, schedule: Q01DX009 (ip), vehicle: distilled water + Tween-80
  T/C: 92 % of control
dose: 800.0 mg/kg/injection, schedule: Q01DX009 (ip), vehicle: other
  T/C: 153 % of control

## CC(=O)NCc1cccc([N+](=O)[O-])c1
dose: 25.0 mg/kg/injection, schedule: Q01DX005 (ip), vehicle: saline with Tween-80
  T/C: 100 % of control
dose: 50.0 mg/kg/injection, schedule: Q01DX005 (ip), vehicle: saline with Tween-80
  T/C: 103 % of control
dose: 100.0 mg/kg/injection, schedule: Q01DX005 (ip), vehicle: saline with Tween-80
  T/C: 100 % of control
dose: 200.0 mg/kg/injection, schedule: Q01DX005 (ip), vehicle: saline with Tween-80
  T/C: 105 % of control

## CC(C)CCCCCCCCCCCCC(=O)NCC(=O)NC1C(CO)OC(Nc2ncnc3nc[nH]c23)C(O)C1O (centres undefined)
dose: 0.13 mg/kg/injection, schedule: Q01DX009 (ip), vehicle: other
  T/C: 114 % of control
dose: 0.5 mg/kg/injection, schedule: Q01DX009 (ip), vehicle: other
  T/C: 161 % of control
dose: 1.0 mg/kg/injection, schedule: Q01DX009 (ip), vehicle: other
  T/C: 105 % of control
dose: 2.0 mg/kg/injection, schedule: Q01DX009 (ip), vehicle: other
  T/C: 89 % of control

## Cc1cc(C2(O)CCCc3ccccc32)[n+]([O-])cc1C (centres undefined)
dose: 50.0 mg/kg/injection, schedule: Q01DX005 (ip), vehicle: saline + Tween-80 + alcohol
  T/C: 106 % of control
dose: 100.0 mg/kg/injection, schedule: Q01DX005 (ip), vehicle: saline + Tween-80 + alcohol
  T/C: 104 % of control
dose: 200.0 mg/kg/injection, schedule: Q01DX005 (ip), vehicle: saline + Tween-80 + alcohol
  T/C: 107 % of control
